Results: paper PMC8472512, “Synthesis and Biochemical Evaluation of Baicalein Prodrugs” (Pharmaceutics, 2021)
Values after ≈ are worked out from the molar mass of the structure shown.

Assays:
Mouse pharmacokinetics = format: in vivo, male ICR mice; conditions: mice
Protocol: Pharmacokinetic studies were conducted with male ICR mice (8 weeks old; 30–35 g body wt.) purchased from Koatech Company (Pyeongtaek, Korea), as reported previously. Intravenous dosing solutions were prepared in EtOH/20% aqueous HPβCD (10/90 vol%) at 2 and 3 mg/mL for baicalein and compound 2, respectively. Oral dosing solutions were prepared in EtOH/tween 80/20% aqueous HPβCD (10/10/80 vol%) at 1 and 1.5 mg/mL for baicalein and compound 2, respectively. Plasma sample analysis was performed as described above in mouse plasma stability assay.

[1] = Chemical stability in physiologically-relevant solutions; format: physicochemical; conditions: 37 °C; for remaining at 4 h, 10 μM: at 4 h vs time 0
Protocol: Stock solutions of the test compounds (baicalein, compounds 1–7) prepared in MeOH at 10 mM were diluted in 0.1 N HCl and 0.1 M potassium phosphate buffer (pH 6.5 and 7.4) in triplicate to a final concentration of 10 μM. The mixtures were then incubated at 37 °C in a shaking water bath. Samples taken at 0, 1, 2, 3 and 4 h were analyzed by Thermo UltiMate 3000 series HPLC system. Chromatographic separation was performed on an Agilent Eclipse Plus C18 column (100 × 4.6 mm, 3.5 µm) kept at 40 °C with isocratic elution at a flow rate of 0.6 mL/min using a mixture of 0.1 vol% TFA in deionized water and acetonitrile as the mobile phase. The detection wavelengths were 277 and 270 nm for baicalein and compounds 1–7, respectively. Peak areas of the analytes on the UV chromatograms were used to calculate % remaining values at each time points.
The stability of baicalein and of the synthesized carbamate prodrugs (1–7) was determined in solutions mimicking gastric (0.1 N HCl, pH ~ 1), intestinal (pH 6.5 phosphate buffer), and physiological (pH 7.4 phosphate buffer) conditions. […]. […] […]. The degradation of the carbamate prodrugs was accompanied by the formation of baicalein under all conditions in this study (data not shown). Although the exact reason for this pH-dependent stability remains unknown, it is plausible that the side chains of amino acids somehow affect the hydrolysis of the carbamate bond of the prodrugs.

[2] = Kinetic solubility in phosphate buffer (pH 7.4); format: physicochemical; conditions: aqueous buffer, kinetic from dmso stock; shake-flask, 0.1 M phosphate buffer (pH 7.4), triplicate
Protocol: Stock solutions of the test compounds (baicalein and compounds 1–7) prepared at 10 mM in DMSO were diluted with 0.1 M potassium phosphate buffer (pH 7.4) in Mini-UniPrep filter vial (PTFE membrane, 0.45 μm) to a final concentration of 500 µM. The mixture was then shaken at 800 rpm for 90 min at rt and filtered by slowly pressing the upper tube of the Mini-Uniprep vial. The filtrate (300 µL) was then transferred to an HPLC vial containing same volume of acetonitrile. Sample analysis was conducted as described above in Chemical stability assay.

[3] = logD7.4 by shake-flask method; format: physicochemical; conditions: 0.1 M phosphate buffer (pH 7.4), duplicate
Protocol: The assay was conducted as reported previously. Briefly, 100 µM test solutions were prepared by diluting 10 mM stock solutions of the test compounds (baicalein and compounds 1–7) in 0.1 M potassium phosphate buffer (pH 7.4) saturated with 1-octanol. Standard solutions were prepared by diluting each test solution with the same volume of DMSO in HPLC vials. Partition solutions were prepared by mixing each test solution and 1-octanol saturated with 0.1 M potassium phosphate buffer (pH 7.4) at three different volume ratios, namely 1:0.02, 1:0.2 and 1:2, in HPLC vials. The partition solutions were then vortexed for 1 h at 1500 rpm at rt. The standard solutions and the aqueous phase (bottom layer) of each partition solution were analyzed directly from the HPLC vials as described above in Chemical stability assay. The logD7.4 values were calculated by the following equation: logD7.4=log(2×As/Ap−1)·Vt/Vo where As and Ap are, respectively, the peak areas of the standard and the aqueous phase of the partition solutions and Vt and Vo the volumes of test solution and 1-octanol of the partition solutions.

[4] = PAMPA (parallel artificial membrane permeability assay)
Protocol: (§1) The assay was conducted as reported previously [15]. The samples were analyzed as described below in mouse plasma stability assay.

in vitro = conditions: PAMPA
Protocol: as §1

[5] = male, ICR, mouse, iv, plasma analyte after single i.v. dose of baicalein 10 mg/kg
[6] = male, ICR, mouse, iv, plasma analyte after single i.v. dose of compound 2 15 mg/kg
[7] = male, ICR, mouse, po, plasma analyte after single p.o. dose of baicalein 10 mg/kg
[8] = male, ICR, mouse, po, plasma analyte after single p.o. dose of compound 2 50 mg/kg
[9] = pH 6.5 buffer (0.1 M potassium phosphate)
[10] = pH 7.4 buffer (0.1 M potassium phosphate)
[11] = male, ICR, mouse, in vivo, iv, plasma analyte after single i.v. dose of compound 2 15 mg/kg
[12] = male, ICR, mouse, in vivo, po, plasma analyte after single p.o. dose of compound 2 50 mg/kg

SMILES	half-life at 10 μM ([1]; buffer, pH 1, 0.1 N HCl, 10 μM)	remaining at 4 h, 10 μM ([1]; buffer, pH 1, 0.1 N HCl)	half-life at 10 μM [1, 9]	remaining at 4 h, 10 μM ([1]; pH 6.5 buffer)	half-life at 10 μM [1, 10]	remaining at 4 h, 10 μM ([1]; pH 7.4 buffer)	solubility kinetic at 90 min [2]	logD [3]	Papp (in vitro)	other results
O=C(O)[C@H]1O[C@@H](Oc2cc3oc(-c4ccccc4)cc(=O)c3c(O)c2O)[C@H](O)[C@@H](O)[C@@H]1O [Baicalin]										time plasma analyte was above the quantitation limit (Mouse pharmacokinetics; after single i.v. dose of 10 mg/kg baicalein): 24 h; time plasma analyte was above the quantitation limit (Mouse pharmacokinetics; after single p.o. dose of 10 mg/kg baicalein, 24 h time course): 24 h; AUC(0-inf) (Mouse pharmacokinetics; [5]): 2600 ± 510 ng·h/mL; AUC(0-t) (Mouse pharmacokinetics; [5]): 2450 ± 490 ng·h/mL; Cmax (Mouse pharmacokinetics; [5]): 4590 ± 870 ng/mL; Tmax (Mouse pharmacokinetics; [5]): 0.1 h; half-life (Mouse pharmacokinetics; [5]): 6.2 ± 2.8 h; AUC(0-inf) (Mouse pharmacokinetics; [6]): 500 ± 170 ng·h/mL; AUC(0-t) (Mouse pharmacokinetics; [6]): 200 ± 88 ng·h/mL; Cmax (Mouse pharmacokinetics; [6]): 90 ± 10 ng/mL; Tmax (Mouse pharmacokinetics; [6]): 0.1 h; half-life (Mouse pharmacokinetics; [6]): 6.6 ± 1.6 h; AUC(0-inf) (Mouse pharmacokinetics; [7]): 4890 ± 1400 ng·h/mL; AUC(0-t) (Mouse pharmacokinetics; [7]): 4420 ± 1440 ng·h/mL; Cmax (Mouse pharmacokinetics; [7]): 2260 ± 670 ng/mL; Tmax (Mouse pharmacokinetics; [7]): 0.2 h; half-life (Mouse pharmacokinetics; [7]): 6.3 ± 3 h; AUC(0-t) (Mouse pharmacokinetics; [8]): 680 ± 210 ng·h/mL; Cmax (Mouse pharmacokinetics; [8]): 130 ± 40 ng/mL; Tmax (Mouse pharmacokinetics; [8]): 6 ± 2.8 h
CC(C)C[C@H](NC(=O)Oc1cc2oc(-c3ccccc3)cc(=O)c2c(O)c1O)C(=O)O [Compound 1, (S)-2-((((5,6-Dihydroxy-4-oxo-2-phenyl-4H-chromen-7-yl)oxy)carbonyl)amino)-4-methylpentanoic acid]	1.4 ± 0.3 h	17.4 ± 2.1%	> 4 h	92.9 ± 5%	> 4 h	98 ± 3.6%	443 ± 65.9 µM (≈ 189 µg/mL)	0.39		
CC(C)[C@H](NC(=O)Oc1cc2oc(-c3ccccc3)cc(=O)c2c(O)c1O)C(=O)O [Compound 2, (S)-2-((((5,6-Dihydroxy-4-oxo-2-phenyl-4H-chromen-7-yl)oxy)carbonyl)amino)-3-methylbutanoic acid]	> 4 h	105 ± 3.5%	> 4 h	92.8 ± 4.2%	> 4 h	74.4 ± 6.6%	479.2 ± 4.4 µM (≈ 198 µg/mL)	0.04		AUC(0-inf) (Mouse pharmacokinetics; [11]): 88700 ± 43200 ng·h/mL; AUC(0-t) (Mouse pharmacokinetics; [11]): 88600 ± 43200 ng·h/mL; Cmax (Mouse pharmacokinetics; [11]): 65100 ± 4290 ng/mL; Tmax (Mouse pharmacokinetics; [11]): 0.1 h; half-life (Mouse pharmacokinetics; [11]): 1.9 ± 0.6 h; clearance (Mouse pharmacokinetics; male, ICR, mouse, in vivo, iv, single i.v. dose of compound 2 15 mg/kg): 3.33 mL/min/kg; Vd (Mouse pharmacokinetics; male, ICR, mouse, in vivo, iv, single i.v. dose of compound 2 15 mg/kg, read-out: VSS): 0.4 ± 0.1 L/kg; AUC(0-inf) (Mouse pharmacokinetics; [12]): 5820 ± 1710 ng·h/mL; AUC(0-t) (Mouse pharmacokinetics; [12]): 5430 ± 1730 ng·h/mL; Cmax (Mouse pharmacokinetics; [12]): 2930 ± 590 ng/mL; Tmax (Mouse pharmacokinetics; [12]): 0.3 ± 0.09 h; half-life (Mouse pharmacokinetics; [12]): 1.7 ± 0.5 h; bioavailability (Mouse pharmacokinetics; male, ICR, mouse, in vivo, oral bioavailability of compound 2, p.o. 50 mg/kg vs i.v. 15 mg/kg): 2 ± 0.6%; Papp [4]: 0.04 ± 0.02 ×10⁻⁶ cm/s
CC[C@@H](C)[C@H](NC(=O)Oc1cc2oc(-c3ccccc3)cc(=O)c2c(O)c1O)C(=O)O [Compound 3, (2S,3R)-2-((((5,6-Dihydroxy-4-oxo-2-phenyl-4H-chromen-7-yl)oxy)carbonyl)amino)-3-methylpentanoic acid]	> 4 h	98.9 ± 5%	> 4 h	90.2 ± 1.1%	> 4 h	80.1 ± 2.5%	447 ± 36.9 µM (≈ 191 µg/mL)	0.25		
C[C@@H](O)[C@H](NC(=O)Oc1cc2oc(-c3ccccc3)cc(=O)c2c(O)c1O)C(=O)O [Compound 4, (2S,3R)-2-((((5,6-Dihydroxy-4-oxo-2-phenyl-4H-chromen-7-yl)oxy)carbonyl)amino)-3-hydroxybutanoic acid]	> 4 h	109 ± 3.4%	2.8 ± 0.1 h	37.3 ± 0.2%	1.7 ± 0.1 h	20 ± 1%	347 ± 11.4 µM (≈ 144 µg/mL)	-0.05		
C[C@H](NC(=O)Oc1cc2oc(-c3ccccc3)cc(=O)c2c(O)c1O)C(=O)O [Compound 6, (S)-2-((((5,6-Dihydroxy-4-oxo-2-phenyl-4H-chromen-7-yl)oxy)carbonyl)amino)propanoic acid]	> 4 h	90.2 ± 4.1%	> 4 h	81.8 ± 1.3%	> 4 h	76.6 ± 1.7%	400 ± 14.7 µM (≈ 154 µg/mL)	-0.18		Papp [4]: < 0.01 ×10⁻⁶ cm/s
O=C(O)CNC(=O)Oc1cc2oc(-c3ccccc3)cc(=O)c2c(O)c1O [Compound 7, 2-((((5,6-Dihydroxy-4-oxo-2-phenyl-4H-chromen-7-yl)oxy)carbonyl)amino)acetic acid]	1.5 ± 0.3 h	23.3 ± 3.6%	> 4 h	82.2 ± 1%	> 4 h	76.7 ± 0.3%	357.1 ± 1.4 µM (≈ 133 µg/mL)	-0.39		
O=C(N[C@H](CO)[C@H](O)c1ccc([N+](=O)[O-])cc1)C(Cl)Cl [chloramphenicol]									> 1 ×10⁻⁶ cm/s	
NS(=O)(=O)c1cc2c(cc1Cl)NCNS2(=O)=O [hydrochlorothiazide]									< 0.1 ×10⁻⁶ cm/s	
COCCc1ccc(OCC(O)CNC(C)C)cc1 (stereo not shown) [metoprolol]									> 1 ×10⁻⁶ cm/s	
CC(C)(C)NCC(O)COc1cccc2c1CC(O)C(O)C2 (stereo not shown) [nadolol, reference compound]										Papp [4]: < 0.1 ×10⁻⁶ cm/s
CC(C)NCC(O)COc1cccc2ccccc12 (stereo not shown) [propranolol]									> 1 ×10⁻⁶ cm/s	
